Measured values published in US20240101542A1, “ERAP INHIBITORS” (UNIVERSITE DE LILLE, priority 2020, published 2024).
Blank lines part the entries; values can stand above or below the compound they belong to.

What was measured:
[1] = biological target: ERAP2 (Homo sapiens (Human), UniProt Q6P179); assay: In vitro ERAP activity assay, ERAP2 with R-AMC substrate; type: biochemical; parameters: IC50 on ERAP2 using R-AMC as substrate: scale not given here; details: R-AMC as substrate; for IC50: read-out: IC50 on ERAP2 using R-AMC as substrate
ERAP2, sequence (Q6P179 whole entry): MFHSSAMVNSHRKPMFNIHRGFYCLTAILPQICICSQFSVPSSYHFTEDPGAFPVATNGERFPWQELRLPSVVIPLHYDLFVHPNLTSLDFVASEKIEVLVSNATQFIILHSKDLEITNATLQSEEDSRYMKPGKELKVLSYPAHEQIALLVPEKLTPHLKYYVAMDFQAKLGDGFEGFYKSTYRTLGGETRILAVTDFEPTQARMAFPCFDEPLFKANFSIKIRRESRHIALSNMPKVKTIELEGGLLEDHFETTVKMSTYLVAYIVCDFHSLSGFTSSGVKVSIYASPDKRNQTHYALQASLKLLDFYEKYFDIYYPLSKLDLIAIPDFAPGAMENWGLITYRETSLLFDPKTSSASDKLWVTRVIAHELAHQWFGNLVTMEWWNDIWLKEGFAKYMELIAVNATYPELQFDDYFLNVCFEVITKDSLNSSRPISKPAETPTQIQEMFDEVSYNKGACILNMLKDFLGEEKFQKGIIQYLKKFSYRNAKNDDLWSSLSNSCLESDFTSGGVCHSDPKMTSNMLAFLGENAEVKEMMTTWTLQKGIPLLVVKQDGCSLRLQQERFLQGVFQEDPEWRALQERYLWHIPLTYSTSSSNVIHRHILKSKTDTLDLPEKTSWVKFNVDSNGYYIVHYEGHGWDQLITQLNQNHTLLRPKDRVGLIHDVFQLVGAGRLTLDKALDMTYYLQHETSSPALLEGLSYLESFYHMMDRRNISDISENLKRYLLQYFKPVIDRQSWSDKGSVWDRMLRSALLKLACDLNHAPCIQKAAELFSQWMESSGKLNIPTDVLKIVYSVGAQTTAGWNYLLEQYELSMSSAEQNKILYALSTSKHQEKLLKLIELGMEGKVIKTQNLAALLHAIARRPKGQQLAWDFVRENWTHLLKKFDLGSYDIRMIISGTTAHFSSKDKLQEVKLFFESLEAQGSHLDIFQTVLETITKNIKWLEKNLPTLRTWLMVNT
Method: (§1) The enzymatic activity of ERAP1 or 2 was assayed using L-AMC (L-Leucine-7-amido-4-methylcoumarin hydrochloride) or R-AMC (L-Arginine-7-amido-4-methylcoumarin hydrochloride) respectively. Hepes at 50 mM with 100 mM NaCl at pH 7 was used as buffer. Briefly, 60 nL of test compounds were added in 384-wells plates (dark, non-binding surface) by acoustic dispensing with nanoacoustic dispenser Echo (Labcyte) and pre-incubated 30 minutes at ambient temperature with 10 μL of ERAP 0.8 μg/mL or 1 μg/mL or vehicle. The reaction was then started with the addition of 10 μL of substrate at 10 μM. The final concentration of ERAP, substrate and DMSO was 0.5 μg/mL, 5 μM and 0.4% respectively. For the kinetic readout a Victor 3V (Perkin-Elmer) was used with excitation at 380 nm and emission at 450 nm. The fluorescence was measured each 3 minutes during one hour.
(§2) The Z and Z′ factors were calculated according to J.-H. Zhang, T. D. Y. Chung, K. R. Oldenburg, A Simple Statistical Parameter for Use in Evaluation and Validation of High Throughput Screening Assays, J. Biomol. Screen., 4 (1999) 67-73. Data analysis was performed using Xlfit® v 5.0 or GraphPad Prism® v 4.0.
(§3) Percentages of inhibition at different concentrations were obtained as described above and IC50s were carried out as 8-point dose response curves and reported as the average of at least three independent measurements. […] Data analysis was performed using Xlfit® v 5.0 or GraphPad Prism® v 4.0. Nonlinear curve fitting and statistical analysis was done using built-in functions.

[2] = biological target: ERAP1 (Homo sapiens (Human), UniProt Q9NZ08); assay: In vitro ERAP activity assay, ERAP1 with L-AMC substrate; type: biochemical; details: L-AMC as substrate; read-out: IC50 on ERAP1 or ERAAP using L-AMC as substrate
ERAP1, sequence (Q9NZ08 whole entry): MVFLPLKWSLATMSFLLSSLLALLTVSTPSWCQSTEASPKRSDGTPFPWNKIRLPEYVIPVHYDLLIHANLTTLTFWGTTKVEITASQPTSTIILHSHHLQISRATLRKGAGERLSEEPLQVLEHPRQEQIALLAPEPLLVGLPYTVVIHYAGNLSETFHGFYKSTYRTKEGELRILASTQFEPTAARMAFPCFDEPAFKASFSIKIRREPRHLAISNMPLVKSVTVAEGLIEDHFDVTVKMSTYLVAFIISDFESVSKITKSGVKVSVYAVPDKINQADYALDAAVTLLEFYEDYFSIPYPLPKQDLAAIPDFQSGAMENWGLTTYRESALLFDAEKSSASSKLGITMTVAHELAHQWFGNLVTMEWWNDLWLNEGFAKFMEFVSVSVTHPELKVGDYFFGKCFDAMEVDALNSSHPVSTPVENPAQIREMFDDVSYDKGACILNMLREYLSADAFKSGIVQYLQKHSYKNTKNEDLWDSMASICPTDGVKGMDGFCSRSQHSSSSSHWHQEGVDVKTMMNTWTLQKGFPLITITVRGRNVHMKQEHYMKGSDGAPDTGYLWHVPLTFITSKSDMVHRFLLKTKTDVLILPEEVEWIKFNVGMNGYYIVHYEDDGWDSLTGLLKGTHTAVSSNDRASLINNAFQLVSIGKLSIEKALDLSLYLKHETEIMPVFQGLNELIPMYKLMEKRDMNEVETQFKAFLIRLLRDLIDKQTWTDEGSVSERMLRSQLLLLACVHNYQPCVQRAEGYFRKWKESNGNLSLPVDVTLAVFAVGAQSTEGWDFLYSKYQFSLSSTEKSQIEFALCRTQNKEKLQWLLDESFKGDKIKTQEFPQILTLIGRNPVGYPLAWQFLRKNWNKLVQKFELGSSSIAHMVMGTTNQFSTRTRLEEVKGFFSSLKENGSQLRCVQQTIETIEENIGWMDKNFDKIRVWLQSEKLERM
Method: as §1, §2, §3

IC50 [1]: < 0.5 µM
IC50 [2]: > 5 µM
Structure (SMILES): CNC(=O)c1cccc(-c2ccc(S(=O)(=O)NCc3cn([C@@H](Cc4ccc(OC)cc4)C(=O)NO)nn3)s2)c1 [Compound 43]

IC50 [1]: < 0.5 µM
IC50 [2]: > 5 µM
Structure (SMILES): O=C(NO)[C@H](Cc1ccc(O)c(F)c1)n1cc(CNS(=O)(=O)c2ccc(-c3ccccn3)s2)nn1 [Compound 44]

IC50 [1]: < 0.5 µM
IC50 [2]: > 5 µM
Structure (SMILES): COc1cccc(C[C@@H](C(=O)NO)n2cc(CNS(=O)(=O)c3ccc(-c4ccccn4)s3)nn2)c1 [Compound 49]

IC50 [1]: < 0.5 µM
IC50 [2]: < 5 µM
Structure (SMILES): COc1ccc(C[C@@H](C(=O)NO)n2cc(CNS(=O)(=O)c3ccc(-c4ccccn4)s3)nn2)cc1Cl [Compound 53]

IC50 [1]: < 0.5 µM
IC50 [2]: < 5 µM
Structure (SMILES): N=C(NO)c1ccc(C[C@@H](C(=O)NO)n2cc(CNS(=O)(=O)c3ccc(-c4ccccc4)s3)nn2)cc1 [Compound 55]

IC50 on ERAP2 using R-AMC as substrate [1]: + +
IC50 [2]: > 5 µM
Structure (SMILES): COc1ccc(C[C@@H](C(=O)NO)n2cc(CN(C3CC3)S(=O)(=O)c3ccc(-c4ccccn4)s3)nn2)cc1 [Compound 57]

IC50 [1]: > 5 µM
IC50 [2]: < 5 µM
Structure (SMILES): COc1ccc(C[C@@H](C(=O)NO)n2cc([C@@H]3CCCN3S(=O)(=O)c3ccc(-c4ccccc4)s3)nn2)cc1 [Compound 59]

IC50 [1]: < 0.5 µM
IC50 [2]: < 5 µM
Structure (SMILES): N#Cc1ccc(C[C@@H](C(=O)NO)n2cc(CNS(=O)(=O)c3ccc(-c4ccccc4)s3)nn2)cc1 [Compound 60]

Continued, compound first:

Structure (SMILES): COc1ccc(C[C@@H](C(=O)NO)n2cc(CNS(=O)(=O)c3ccc(-c4ccccc4)s3)nn2)cc1OC [Compound 42]
IC50 [1]: < 0.5 µM
IC50 [2]: < 0.5 µM

Structure (SMILES): O=C(NO)[C@H](Cc1ccc(O)c(F)c1)n1cc(CNS(=O)(=O)c2ccc(-c3ccccc3)s2)nn1 [Compound 45]
IC50 [1]: < 0.5 µM
IC50 [2]: > 5 µM

Structure (SMILES): COc1ccc(C[C@@H](C(=O)NO)n2cc(CNS(=O)(=O)c3ccc(-c4ccccn4)s3)nn2)cc1F [Compound 52]
IC50 [1]: < 0.5 µM
IC50 [2]: > 5 µM

Structure (SMILES): C#Cc1ccc(C[C@@H](C(=O)NO)n2cc(CNS(=O)(=O)c3ccc(-c4ccccc4)s3)nn2)cc1 [Compound 54]
IC50 [1]: < 0.5 µM
IC50 [2]: < 5 µM

Structure (SMILES): COc1ccc(C[C@@H](C(=O)NO)n2cc(CNS(=O)(=O)c3cnc(-c4ccccc4)s3)nn2)cc1 [Compound 56]
IC50 [1]: < 0.5 µM
IC50 [2]: < 5 µM

Structure (SMILES): COc1ccc(C[C@@H](C(=O)NO)n2cc(C3CCCCN3S(=O)(=O)c3ccc(-c4ccccc4)s3)nn2)cc1 (stereo partly shown) [Compound 58]
IC50 [1]: > 5 µM
IC50 [2]: < 5 µM
